US12156860B2, “Disorders implicating PUFA oxidation” (BioJiva LLC, priority 2011, dated 2024)

Columns and labels:
Wild-type yeast cells = assay: C11-Bodipy 581/591 lipid peroxidation in copper-stressed yeast; format: cell-based, S. cerevisiae; conditions: 200 μM fatty acid 2 hours, then 50 μM CuSO4 60 min
Procedure: Wild-type yeast cells were treated as described above except the yeast were treated with 200 μM of the designated fatty acid for 2 hours, washed with sterile water, and were either not treated (triangles) or treated with 50 μM CuSO4 (squares) at room temperature. After 60 min of copper treatment cells were treated with 8 μM C11-Bodipy 581/591 for 30 min at room temperature. Four 100 μl aliquots were plated in a 96-well plate and the fluorescence was measured.

Q-less coq3 yeast = assay: Yeast incubated with different ratios of H- and D-PUFA, plate dilution; format: cell-based, S. cerevisiae; conditions: 200 μM total LA and D2-LA at different ratios
Procedure: FIG. 9. […] Wild-type, yeast Q-less coq3, or respiratory deficient cor1 null mutants were incubated in the presence of 200 μM of LA and D2-LA at different ratios of PUFAs. Serial dilutions (1:5) starting at 0.2 OD/ml were spotted on YPD solid plate medium. A zero-time untreated control is shown on the top left. Growth at 30° C.
FIG. 10. […] Serial dilutions (1:5) starting at 0.2 OD/ml were spotted on YPD solid plate medium. Growth at 30° C.
Wild-type, yeast Q-less coq3, or respiratory deficient cor1 null mutants were incubated in the presence of 200 μM of LA and D2-LA at different ratios of PUFAs, as indicated in FIG. 9. Serial dilutions (1:5) starting at 0.2 OD/ml were spotted on YPD solid plate medium. […] Growth was at 30° C.
Serial dilutions (1:5) starting at 0.2 OD/ml were spotted on YPD solid plate medium. Growth was at 30° C.

[1] = Oxidation of mixtures of LA and D2-LA in chlorobenzene; format: physicochemical
Procedure: FIG. 8. Dependence of the rate of oxidation of the mixture of LA and D2-LA in chlorobenzene solution on mixture composition. Conditions: [LA]+[11,11-d2-LA]=0.775 M; [AMVN]=0.0217 M; 37° C. RIN=(1.10±0.08)×10^−7 M/sec.
To simulate the likely in vivo conditions, the kinetics of the oxidation of the mixtures of D2-LA and LA were studied (FIG. 8). In the experiments, the concentration of LA plus 11,11-d2-LA was 0.775 M; the concentration of AMVN was 0.0217 M; and the reactions were carried out at 37° C. The results afforded an RIN of 1.10±0.08×10^−7 M/sec.

[2H]C([2H])(/C=C\CCCCC)/C=C\CCCCCCCC(=O)O [D2-LA, 11,11-Dideutero-cis,cis-9,12-Octadecadienoic acid]
levels of lipid peroxidation (C11-Bodipy fluorescence) (Wild-type yeast cells): lower levels of lipid peroxidation similar to yeast not treated with PUFA | sufficiently minimal amount to cancel the toxicity of LA (Q-less coq3 yeast): 10-15% | effect during oxidation of mixture with non-deuterated methyl linoleate ([1]; data not shown): qualitatively similar effect | effect on autoxidation of non-deuterated LA in mixture ([1]; mixtures of D2-LA and LA): ‘protects’ the non-deuterated LA against autoxidation
